These compounds were tested against T1, mGlyT-1b (Mus musculus, UniProt P28571) (assay: Glycine Uptake Inhibition Assay (mGlyT-1b)). Settings: [3H]-glycine uptake inhibition at GlyT-1, Flp-in-CHO cells transfected with mGlyT-1b cDNA.
T1 construct: host or cells: Flp-in-CHO cells
T1 sequence (P28571 1-651 isoform P28571-2): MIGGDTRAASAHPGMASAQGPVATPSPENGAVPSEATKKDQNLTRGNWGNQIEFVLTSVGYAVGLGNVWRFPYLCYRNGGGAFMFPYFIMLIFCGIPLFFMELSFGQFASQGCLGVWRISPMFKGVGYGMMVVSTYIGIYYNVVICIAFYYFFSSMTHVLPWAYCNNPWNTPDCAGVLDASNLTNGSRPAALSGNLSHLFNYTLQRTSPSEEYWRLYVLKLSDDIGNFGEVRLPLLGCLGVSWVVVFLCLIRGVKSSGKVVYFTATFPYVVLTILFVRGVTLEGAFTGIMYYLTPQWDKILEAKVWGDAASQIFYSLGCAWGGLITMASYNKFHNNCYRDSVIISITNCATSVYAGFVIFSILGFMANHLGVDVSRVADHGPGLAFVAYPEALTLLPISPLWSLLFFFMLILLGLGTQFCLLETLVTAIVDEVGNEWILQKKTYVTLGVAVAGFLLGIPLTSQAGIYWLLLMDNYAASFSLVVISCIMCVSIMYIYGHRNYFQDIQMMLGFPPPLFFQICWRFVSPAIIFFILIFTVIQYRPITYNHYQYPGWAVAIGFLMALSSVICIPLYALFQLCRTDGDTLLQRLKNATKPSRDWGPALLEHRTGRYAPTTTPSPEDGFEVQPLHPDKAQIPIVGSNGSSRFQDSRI
Assay type: cell-based
Description: DMEM complete medium: Nutrient mixture F-12 (Gibco Life-technologies), fetal bovine serum (FBS) 5%, (Gibco life technologies), Penicillin/Streptomycin 1% (Gibco life technologies), Hygromycin 0.6 mg/ml (Gibco life technologies), Glutamine 1 mM Gibco life technologies)
Uptake buffer (UB): 150 mM NaCl, 10 mM Hepes-Tris, pH 7.4, 1 mM CaCl2, 2.5 mM KCl, 2.5 mM MgSO4, 10 mM (+) D-glucose. Flp-in™-CHO (Invitrogen Cat n^o R758-07) cells stably transfected with mGlyT1b cDNA.
Glycine Uptake Inhibition Assay (mGlyT-1b)
On day 1 mammalian cells, (Flp-in™-CHO), transfected with mGlyT-1b cDNA, were plated at the density of 40,000 cells/well in complete F-12 medium, without hygromycin in 96-well culture plates. On day 2, the medium was aspirated, and the cells were washed twice with uptake buffer (UB). The cells were then incubated for 20 min at 22° C. with either (i) no potential competitor, (ii) 10 mM non-radioactive glycine, (iii) a concentration of a potential inhibitor. A range of concentrations of the potential inhibitor was used to generate data for calculating the concentration of inhibitor resulting in 50% of the effect (e.g. IC50, the concentration of the competitor inhibiting glycine uptake of 50%).
A solution was then immediately added containing [^3H]-glycine 60 nM (11-16 Ci/mmol) and 25 μM non-radioactive glycine. The plates were incubated with gentle shaking, and the reaction was stopped by aspiration of the mixture and washing (three times) with ice-cold UB. The cells were lysed with scintillation liquid, shaken 3 hours and the radioactivity in the cells counted using a scintillation counter.

`CCS(=O)(=O)c1ccc(N2CCN(C(=O)c3cc(S(C)(=O)=O)ccc3OC3CCCCC3)CC2)c(F)c1` [compound 564] and `CS(=O)(=O)c1ccc(OC2CCCCC2)c(C(=O)N2CCN(c3ccc(S(=O)(=O)C4CC4)cc3F)CC2)c1` [compound 574] are within 1.5-fold of each other in IC50: 41 nM for the first, 34 nM for the second.

Going from `CC(Oc1ccc(S(C)(=O)=O)cc1C(=O)N1CCN(c2ccc(C(F)(F)F)c(F)c2)CC1)C(F)(F)F` (racemic) [compound 303] to `CC(Oc1ccc(S(C)(=O)=O)cc1C(=O)N1CCN(c2ccc(C(F)(F)F)cc2)CC1)C(F)(F)F` (single isomer, unassigned) [compound 468], the IC50 rises from 6 nM to 20 nM (3.3-fold). The first is the more potent here.

`CS(=O)(=O)c1ccc(OCC(F)(F)C(F)(F)F)c(C(=O)N2CCN(c3ccc(C#N)c(F)c3)CC2)c1` [compound 180] and `CS(=O)(=O)c1ccc(OCC(F)(F)C(F)F)c(C(=O)N2CCN(c3ccc(C#N)c(F)c3)CC2)c1` [compound 209] are within 1.5-fold of each other in IC50: 36 nM for the first, 41 nM for the second.

Going from `CC(C)Oc1ccc(S(C)(=O)=O)cc1C(=O)N1CCN(c2ccc(S(=O)(=O)C(F)(F)F)cc2)CC1` [Example 328, (2-Isopropoxy-5-methanesulfonyl-phenyl)-[4-(4-trifluoromethanesulfonyl-phenyl)-piperazin-1-yl]-methanone] to `CC(C)COc1ccc(S(C)(=O)=O)cc1C(=O)N1CCN(c2ccc(S(=O)(=O)C(F)(F)F)cc2)CC1` [Example 330, (2-Isobutoxy-5-methanesulfonyl-phenyl)-[4-(4-trifluoromethanesulfonyl-phenyl)-piperazin-1-yl]-methanone], the IC50 falls from 32 nM to 18 nM (1.8-fold). The second is the more potent here.

Going from `CNS(=O)(=O)c1ccc(OCC2CCC2)c(C(=O)N2CCN(c3ccc(C#N)cc3F)CC2)c1` [compound 510] to `CNS(=O)(=O)c1ccc(OC2CCCC2)c(C(=O)N2CCN(c3ccc(C#N)cc3F)CC2)c1` [compound 507], the IC50 rises from 15 nM to 31 nM (2.1-fold). The first is the more potent here.

`CNS(=O)(=O)c1ccc(OC(C)C(F)(F)F)c(C(=O)N2CCN(c3cc(F)c(C#N)cc3F)CC2)c1` (racemic) [compound 557] and `CC(Oc1ccc(S(C)(=O)=O)cc1C(=O)N1CCN(c2cc(F)c(C#N)c(F)c2)CC1)C(F)(F)F` (racemic) [compound 262] are the same in IC50: 42 nM for the first, 42 nM for the second.

Going from `CNS(=O)(=O)c1ccc(OCCC(F)(F)F)c(C(=O)N2CCN(c3ccc(C(F)(F)F)cc3)CC2)c1` [compound 531] to `CNS(=O)(=O)c1ccc(OCC(F)(F)F)c(C(=O)N2CCN(c3ccc(C#N)cc3F)CC2)c1` [compound 534], the IC50 rises from 28 nM to 49 nM (1.8-fold). The first is the more potent here.

`CC(=O)c1ccc(N2CCN(C(=O)c3cc(S(C)(=O)=O)ccc3OC(C)C)CC2)c(F)c1` [Example 1, 1-{3-fluoro-4-[4-(2-isopropoxy-5-methanesulfonyl-benzoyl)-piperazin-1-yl]-phenyl}-ethanone] and `CC(C)Oc1ccc(S(C)(=O)=O)cc1C(=O)N1CCN(c2ccc(C=O)cc2F)CC1` [compound 461] are within 1.5-fold of each other in IC50: 39 nM for the first, 46 nM for the second.

Going from `CNS(=O)(=O)c1ccc(OC2CCCC2)c(C(=O)N2CCN(c3ccc(C(C)=O)cc3F)CC2)c1` [compound 517] to `CC(=O)c1ccc(N2CCN(C(=O)c3cc(S(C)(=O)=O)ccc3OC3CCCCC3)CC2)c(F)c1` [compound 281], the IC50 falls from 35 nM to 21 nM (1.7-fold).

`CC(=O)c1ccc(N2CCN(C(=O)c3cc(S(C)(=O)=O)ccc3OC(C)C)CC2)cc1F` [compound 367] and `CC(C)COc1ccc(S(C)(=O)=O)cc1C(=O)N1CCN(c2ccc(S(C)(=O)=O)c(F)c2)CC1` [compound 371] are within 1.5-fold of each other in IC50: 36 nM for the first, 41 nM for the second.

Compared with `CNS(=O)(=O)c1ccc(OCC(C)C)c(C(=O)N2CCN(c3ccc(C#N)cc3F)CC2)c1` [compound 504], `CNS(=O)(=O)c1ccc(OCC(C)C)c(C(=O)N2CCN(c3ccc(C#N)cc3)CC2)c1` [compound 488] is 1.6-fold higher in IC50: 25 nM for the first, 39 nM for the second.

Going from `CS(=O)(=O)c1ccc(OCC2CCC2)c(C(=O)N2CCN(c3ccc(C#N)c(F)c3F)CC2)c1` [compound 145] to `CS(=O)(=O)c1ccc(OCC2CC2)c(C(=O)N2CCN(c3ccc(Cl)cc3C#N)CC2)c1` [compound 228], the IC50 rises from 15 nM to 47 nM (3.1-fold). The first is the more potent here.

`CC(C)(C)Oc1ccc(S(C)(=O)=O)cc1C(=O)N1CCN(c2ccc(C(F)(F)F)cc2F)CC1` [compound 247] and `CC(C)(C)Oc1ccc(S(C)(=O)=O)cc1C(=O)N1CCN(c2cc(F)c(C#N)cc2F)CC1` [compound 234] are within 1.5-fold of each other in IC50: 30 nM for the first, 43 nM for the second.

First: CS(=O)(=O)c1ccc(OCC2CC2)c(C(=O)N2CCN(c3c(F)cc(C#N)cc3F)CC2)c1 [compound 165]
Second: CC(Oc1ccc(S(C)(=O)=O)cc1C(=O)N1CCN(c2c(F)cc(C#N)cc2F)CC1)C(F)(F)F (racemic) [compound 260]
The IC50 of the first is 11-fold higher: 470 nM for the first, 43 nM for the second. The second is the more potent here.

Compared with `CS(=O)(=O)c1ccc(OC2CCCCC2)c(C(=O)N2CCN(c3ccc(C(F)(F)F)cc3)CC2)c1` [compound 285], `O=C(c1cc([N+](=O)[O-])ccc1OC1CCCC1)N1CCN(c2ccc(C(F)(F)F)cc2)CC1` [Example 71, (2-Cyclopentyloxy-5-nitro-phenyl)-[4-(4-trifluoromethyl-phenyl)-piperazin-1-yl]-methanone] is 5.2-fold lower in IC50: 42 nM for the first, 8 nM for the second. The second is the more potent here.

`CS(=O)(=O)c1ccc(OC2CCCC2)c(C(=O)N2CCN(c3ncc(C(F)(F)F)cc3Cl)CC2)c1` [compound 413] and `CS(=O)(=O)c1ccc(OC2CCCC2)c(C(=O)N2CCN(c3ccc(C(F)(F)F)cc3C#N)CC2)c1` [compound 373] are within 1.5-fold of each other in IC50: 30 nM for the first, 35 nM for the second.

Going from `CS(=O)(=O)c1ccc(OC2CCC2)c(C(=O)N2CCN(c3ccc(C#N)cc3F)CC2)c1` [compound 313] to `CS(=O)(=O)c1ccc(OC2CCCCC2)c(C(=O)N2CCN(c3ccc(C#N)cc3F)CC2)c1` [compound 283], the IC50 falls from 18 nM to 8 nM (2.2-fold). The second is the more potent here.

Going from `CC(C)Oc1ccc(S(C)(=O)=O)cc1C(=O)N1CCN(c2ccc(Cl)cc2C#N)CC1` [compound 202] to `CC(C)COc1ccc(S(C)(=O)=O)cc1C(=O)N1CCN(c2cc(F)c(C#N)cc2F)CC1` [compound 132], the IC50 rises from 24 nM to 38 nM (1.6-fold).

Compared with `CS(=O)(=O)c1ccc(OC2CCCC2)c(C(=O)N2CCN(c3ccc(C#N)cn3)CC2)c1` [compound 411], `CS(=O)(=O)c1ccc(OC2CCCC2)c(C(=O)N2CCN(c3cc(F)c(C#N)c(F)c3)CC2)c1` [compound 172] is 2.4-fold lower in IC50: 45 nM for the first, 19 nM for the second. The second is the more potent here.

Going from `CS(=O)(=O)c1ccc(OCC(F)(F)F)c(C(=O)N2CCN(c3ccc(Cl)c(Cl)c3)CC2)c1` [compound 251] to `CC(C)(C)COc1ccc(S(C)(=O)=O)cc1C(=O)N1CCN(c2ccc(C(F)(F)F)c(F)c2)CC1` [compound 295], the IC50 falls from 32 nM to 16 nM (2-fold).

`CC(C)(Oc1ccc(S(C)(=O)=O)cc1C(=O)N1CCN(c2ccc(C(F)(F)F)cn2)CC1)C(F)(F)F` [Example 105, [5-Methanesulfonyl-2-(2,2,2-trifluoro-1,1-dimethyl-ethoxy)-phenyl]-[4-(5-trifluoromethyl-pyridin-2-yl)-piperazin-1-yl]-methanone] and `C[C@H](Oc1ccc(S(C)(=O)=O)cc1C(=O)N1CCN(c2ncc(C(F)(F)F)cc2F)CC1)C(F)(F)F` (racemic) [compound 470] are within 1.5-fold of each other in IC50: 39 nM for the first, 30 nM for the second.

`CS(=O)(=O)c1ccc(OC2CCCC2)c(C(=O)N2CCN(c3ccc(S(=O)(=O)C4CC4)cc3F)CC2)c1` [compound 573] and `CC(C)Oc1ccc(S(C)(=O)=O)cc1C(=O)N1CCN(c2ccc(S(=O)(=O)C3CCCCC3)cc2F)CC1` [compound 589] are within 1.5-fold of each other in IC50: 37 nM for the first, 32 nM for the second.

First: CS(=O)(=O)c1ccc(OCC(F)(F)C(F)(F)F)c(C(=O)N2CCN(c3c(F)cc(C#N)cc3F)CC2)c1 [compound 186]
Second: CS(=O)(=O)c1ccc(OCC(F)(F)C(F)(F)F)c(C(=O)N2CCN(c3ccc(C#N)c(F)c3F)CC2)c1 [compound 184]
The IC50 of the first is 2.2-fold higher: 48 nM for the first, 22 nM for the second. The second is the more potent here.

Compared with `CC(=O)c1ccc(N2CCN(C(=O)c3cc(S(C)(=O)=O)ccc3OCC3CC3)CC2)c(F)c1` [Example 15, 1-{4-[4-(2-cyclopropylmethoxy-5-methanesulfonyl-benzoyl)-piperazin-1-yl]-3-fluoro-phenyl}-ethanone], `O=C(c1cc([N+](=O)[O-])ccc1OC1CCOCC1)N1CCN(c2ccc(C(F)(F)F)cc2)CC1` [Example 95, [5-Nitro-2-(tetrahydro-pyran-4-yloxy)-phenyl]-[4-(4-trifluoromethyl-phenyl)-piperazin-1-yl]-methanone] is 2.3-fold higher in IC50: 15 nM for the first, 35 nM for the second. The first is the more potent here.

Source: patent publication US7605163B2, “Benzoyl-piperazine derivatives” (Hoffmann-La Roche Inc., priority 2003, dated 2009)
